The target in the assay is HPK1 (Homo sapiens (Human), UniProt Q92918). In words: HPK1 biochemical enzyme assay (microfluidic mobility shift assay). The note with it: 1.5 nM HPK1, ATP 1 mM final, 60 min at RT, Caliper EZ Reader; read-out: HPK1 1000UMATP caliper IC50. The method, then: HPK1 biochemical enzyme assay: HPK1 enzyme inhibition was measured using a microfluidic mobility shift assay. […] Test compounds were titrated in ten point curves (top final assay concentration […]), and preincubated with enzyme/substrate mix for 30 min prior to initiation of the reaction by addition of ATP (1 mM final concentration) and substrate (1 μM final concentration; Carna Biosciences) diluted in assay buffer supplemented by MgCl2 (final assay concentration of 5 mM). Following 60 min incubation at RT, the reaction was terminated by addition of 60 µl/well termination buffer (Carna Biosciences) and signal determination using a Caliper EZ Reader (Perkin Elmer, UK). […] The compound numbers correspond to the compound numbers in Table 1.
HPK1, sequence (Q92918 whole entry): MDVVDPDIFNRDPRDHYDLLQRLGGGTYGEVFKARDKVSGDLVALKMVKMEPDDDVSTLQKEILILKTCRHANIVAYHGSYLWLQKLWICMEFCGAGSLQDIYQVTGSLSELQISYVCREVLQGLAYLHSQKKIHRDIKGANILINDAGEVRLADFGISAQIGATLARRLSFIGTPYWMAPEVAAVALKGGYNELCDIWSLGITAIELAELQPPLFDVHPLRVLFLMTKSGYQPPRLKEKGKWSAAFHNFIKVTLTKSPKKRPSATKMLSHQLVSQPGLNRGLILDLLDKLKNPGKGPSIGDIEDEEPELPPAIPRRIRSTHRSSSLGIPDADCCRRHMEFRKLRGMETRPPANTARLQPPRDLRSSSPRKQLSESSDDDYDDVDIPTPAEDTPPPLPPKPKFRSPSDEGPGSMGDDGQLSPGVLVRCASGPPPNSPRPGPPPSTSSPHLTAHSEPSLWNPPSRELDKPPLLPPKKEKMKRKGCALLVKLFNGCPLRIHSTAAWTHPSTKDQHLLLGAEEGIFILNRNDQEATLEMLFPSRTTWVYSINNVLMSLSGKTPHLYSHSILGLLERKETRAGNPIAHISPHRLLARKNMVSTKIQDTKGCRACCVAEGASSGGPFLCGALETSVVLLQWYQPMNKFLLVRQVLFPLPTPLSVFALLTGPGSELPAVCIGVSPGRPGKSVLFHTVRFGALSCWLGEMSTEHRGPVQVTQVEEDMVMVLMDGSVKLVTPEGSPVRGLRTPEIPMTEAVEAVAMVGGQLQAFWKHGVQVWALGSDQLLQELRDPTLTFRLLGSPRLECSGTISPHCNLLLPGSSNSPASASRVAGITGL

Counter-ions that a name gives are not always drawn. Where only a bound is given, the exact number is not on record here.

In general, IC50 refers to the concentration at which inhibition is half-maximal.

For `COCC1(O)CCN(c2ccc(Nc3cnc(-c4ccnc5c4ccn5C)c4c3C(=O)NC4)nc2CN(C)C)CC1` [I-851, 7-1(6-[(dimethylamino)-methyl (-5-[4-hydroxy-4-(methoxymeth-yl)-1-piperidyl]-2-pyridyl]amino]-4-(1-methylpyrrolo [2,3-b]pyridin-4-yl)-2,3-dihydropyrrolo [3,4-c]pyridin-1-one Formate salt], the 50% inhibitory concentration (IC50) was less than 100 nM.

For the molecule “(R)-7-((6- ((dimethylamino)- methyl)-5-(3-(2- hydroxypropan- 2-yl)piperidin-1- yl)pyridin-2- yl)amino)-4-(7- fluoroimidazo [1,2-a]pyridin- 3-yl)isoindolin- 1-one [I-745]”, the half-inhibitory concentration (IC50) is less than 100 nM.

As for “(S)-7-((6- ((dimethylamino)- methyl)-5-(3-(2- hydroxypropan- 2-yl)piperidin-1- yl)pyridin-2- yl)amino)-4-(7- fluoroimidazo [1,2-a]pyridin- 3-yl)isoindolin- 1-one [I-746]”, the IC50 was less than 100 nM.
